In US10273278B2, “Epitope recognized by anti-interferon gamma autoantibodies in patients with disseminated mycobacterial infections and the application therefor” (priority 2015, dated 2019):

Columns and labels:
anti-IFNr AutoAbs [1] = test: Protein mapping ELISA of recombinant IFNr proteins with blood plasma; assay type: binding, human; details: for recognition of recombinant IFNr protein by blood plasma (ELISA): plasma from group-1 patients
anti-IFNr AutoAbs [2] = test: Immunoblotting (Western blot / dot blot) with patient or control plasma; assay type: binding, human; details: for recognition by anti-IFNr AutoAbs in Western blot and dot blot: plasma from anti-IFNr AutoAbs patients; for binding of plasma from healthy controls in Western blot: plasma from healthy donors
Description: Recombinant IFNr[…] (R&D Systems) and different truncated forms of recombinant IFNr[…] were subjected to SDS-PAGE using a 10% gel under reducing conditions at 120 V for 2 hours. The proteins were transferred to a PVDF membrane (Invitrogen Life Technologies) at 250 mA for 2 hours. The membrane was blocked in 5% human normal serum albumin (Aventis) in TBS with 0.1% Tween 20 overnight at 4° C. The membrane was incubated with a 1/100 dilution of patient or control blood plasma for 3 hours at room temperature. After being washed three times, the membrane was incubated in a 1/10,000 dilution of mouse anti-human IgG conjugated with horseradish peroxidase (Jackson ImmunoResearch Laboratories) for 1 hour at room temperature. After being washed three times, the membrane was developed with ECL (Merck Millipore).
Plasma from 3 healthy donors had no response to either IFNr1-131 or EE-IFNr.

p-STAT1 in PBMCs = test: p-STAT1 intracellular stain in PBMCs (CD14+ gated); assay type: cell-based, human; details: for p-STAT1 signaling restored / up-regulated: IFNr AutoAbs patients' PBMCs pre-incubated with 10% autologous blood plasma; for phosphorylation of STAT1: controls' PBMCs pre-incubated with 20% blood plasma with anti-IFNr AutoAbs from patients; for p-STAT1 signaling: controls' PBMCs, 20% control blood plasma
Description: A total of 10^6 PBMCs in 200 μL RPMI-1640 with 10% FBS and 1% penicillin/streptomycin was used. […] After 30 minutes of stimulation in a 37° C. incubator, monocytes were identified by FITC-CD14 (BD Pharmingen) surface staining. Fixed by adding 250 μL of FASC lysing solution (BD Pharmingen) and incubated at room temperature for 15 minutes in the dark, followed by two washes with PBS. To permeabilize the cells, 500 μl of ice-cold absolute methanol was added to each tube and incubated for 15 minutes on ice in the dark, followed by two washes with PBS. Next, PE-phospho-STAT1 (pY701) antibody (BD Pharmingen) was added, followed by 30 minutes incubation on ice in the dark. Again, cells were washed with 2 mL of PBS before resuspension in the 500 μL of PBS. Data were collected with a FACSVerse flow cytometer (BD Biosciences) and analyzed using FACSuite software (BD Biosciences).
Representative histograms (FIG. 2c(1)-FIG. 2c(2)) and MFI (median fluorescence intensity) (FIG. 2d) are shown.
After being gated on the CD14^+, p-STAT-1 levels were determined by flow cytometry with the p-STAT-1 monoclonal antibody. Representative histograms (FIG. 4a(1)-FIG. 4a(2)) and MFI (median fluorescence intensity) (FIG. 4b) are shown.

IL-12p40 in PBMCs = assay type: cell-based, human
[3] = tested on: HLA-DR expression in PBMCs; test: HLA-DR expression in PBMCs (CD14+ gated); assay type: cell-based, human; details: IFNr AutoAbs patients' PBMCs pre-incubated with 10% autologous plasma
Description: A total of 10^6 PBMCs in 200 μL RPMI-1640 with 10% FBS and 1% penicillin/streptomycin was used. Cells were then stimulated with 500 IU IFNr, IFNr_1-131 or EE-IFNr⋅ in 160 μL RPMI-1640 pre-incubated with 40 μL of normal blood plasma or patient blood plasma for 10 min at room temperature. After 24 hours of stimulation in a 37° C. incubator, monocytes were identified by FITC-CD14 (BD Pharmingen) surface staining. Next, PE-HLA-DR antibody (BD Pharmingen) was added followed by 30 minutes of incubation on ice in the dark. Cells were again washed with 2 ml of PBS before resuspension in 500 μl of PBS. Data were collected with a FACSVerse flow cytometer (BD Biosciences) and analyzed using FACSuite software (BD Biosciences).
After being gated on the CD14^+, HLA-DR expression levels were determined by flow cytometry with the HLA-DR monoclonal antibody. Representative histograms (FIG. 4d(1)-FIG. 4d(2)) and MFI (median fluorescence intensity) (FIG. 4e) are shown.

p-STAT1 in whole blood = p-STAT1 in whole blood ex vivo; assay type: cell-based, human; details: for p-STAT1 signaling restored / up-regulated: IFNr AutoAbs patients' whole blood; for p-STAT1 signal: controls' whole blood
Description: Representative histograms (FIG. 4f(1)-FIG. 4f(2)) and MFI (median fluorescence intensity) (FIG. 4g) are shown.

WKY/NcrlNarl rats = test: Immunization of rats with Noc2 or IFNr peptide conjugated with OVA; assay type: in vivo, rat; details: 0.25 mg peptide-OVA, booster every two weeks
Description: The inventor immunized WKY/NcrlNarl rats with 0.25 mg Noc2 or IFNr[…] peptide (Noc2: […] (SEQ NO: 31); IFNr: […] (SEQ NO: 32)) conjugated with ovalbumin (OVA) and gave a booster dose every two weeks after the initial injection (day 0). After 70 days, the inventor checked the antibody production level by dot blot or ELISA at each injection. All rats were sacrificed ten days after the tenth injection (day 136) and whole blood was collected. After collection of the whole blood, the blood was allowed to clot by leaving it undisturbed at room temperature 15 minutes. Clots were removed by centrifuging at 1500 g for 10 minutes in a refrigerated centrifuge. Sera were aliquoted and stored at −20° C. for further use.
Blood sera from pre-immunized rats (n=6), Noc2 peptide-immunized rats (n=4) and Peptide 6-immunized rats (n=2) were mapped to control peptide, Peptide 6 and Noc2 peptide from Aspergillus terreus or Aspergillus fumigatus. This is represented as the mean optical density (OD) at 405 nm.

THP1 cells = test: p-STAT1 in THP1 cells pre-incubated with sera of immunized rats and treated with IFNr; assay type: cell-based; details: 50% sera
anti-IFNr AutoAbs [4] = test: Epitope mapping ELISA of synthetic peptides with blood plasma; assay type: binding, human; details: for recognition of synthetic peptide by blood plasma: plasma from anti-IFNr AutoAbs patients (group-1), 1:100, OD 405 nm
Description: Clear polystyrene 96-well flat bottom plates (Nunc) were coated with 100 μL of peptide solution (5 μg/mL) with b-carbonate buffer (pH 9.6) at 4° C. overnight. After blocking the remaining binding sites with 5% human normal serum albumin (Aventis) in PBS, the plates were incubated at 37° C. for 1 hour. Afterward, the plates were washed 3 times with 0.5% Tween 20 in PBS.
Blood plasma samples were added at a 1:100 dilution, in PBS containing 5% human normal serum albumin. Following incubation at room temperature for 2 hours and being washed 3 times, goat anti-human IgG Fcr fragment specific conjugated with alkaline phosphate (Jackson ImmunoResearch Laboratories), was added at a 1:5000 dilution, and the plates were kept for 1 hour at room temperature. Finally, after being washed 5 times, 100 μL of p-Nitrophenyl Phosphate (pNPP) was added and the reaction was read at 405 nm by a VICTOR X3 Multilabel Plate Reader (PerkinElmer) after 30 minutes of incubation at 37° C.

anti-IFNr AutoAbs [5] = test: Competition ELISA against coated peptide 6; assay type: binding, human; details: patient plasma pre-incubated with 5-30 μg/mL competitor peptide
Description: To evaluate the specificity of the reaction, a competition ELISA experiment was performed. Each plasma sample (1:100 dilutions) was pre-incubated with different concentrations (5-30 μg/mL) of the competition peptides overnight at 4° C. Subsequently, all plasma and different concentrations competition peptides mixture samples were examined following the epitope mapping protocol. Peptide 6 was coated with b-carbonate buffer (pH 9.6) at 4° C. overnight. After blocking at 37° C. for 1 hour, all pre-incubated plasma and different concentrations competition peptides mixture samples were added in duplicate. Following 2 hours of room temperature incubation, goat anti-human IgG Fcr fragment specific conjugated with alkaline phosphate, was added. Finally, 100 μL of pNPP was added and the reaction was read at 405 nm by a VICTOR X3 Multilabel Plate Reader (PerkinElmer) after 30 minutes of incubation at 37° C.

anti-IFNr AutoAbs [6] = test: Detection and titration of IFNr neutralizing autoantibodies (patient plasma, IFNr ELISA); assay type: binding, human; details: 200 pg/mL IFNr incubated with serially diluted patient plasma
Description: Blood plasma from patients and donors was serially diluted (10^−1 to 10^−6) and incubated with recombinant human IFNr at a final concentration of 200 pg/mL for 1 hour at 37° C. The IFNr level was measured with a human IFNr ELISA kit from BD Biosciences according to the manufacturer's recommendations. All experiments were performed in duplicate.

Molecule: IFNr_1-144: full-length recombinant IFNr expressed in Schneider 2 cells [reference compound]
- recognition of recombinant IFNr protein by blood plasma (ELISA) (anti-IFNr AutoAbs [1]): recognized by blood plasma isolated from the group-1 patients
- recognition by anti-IFNr AutoAbs in Western blot and dot blot (anti-IFNr AutoAbs [2]): recognized by anti-IFNr AutoAbs

Molecule: recombinant IFNr: Recombinant human IFNr (R&D Systems), commercial wild type [reference compound]
- p-STAT1 signaling restored / up-regulated (p-STAT1 in PBMCs): up-regulated p-STAT1 signaling cannot be observed
- phosphorylation of STAT1 (p-STAT1 in PBMCs): not
- p-STAT1 signaling (p-STAT1 in PBMCs): Up-regulation of the p-STAT1 signaling was observed
- IL-12p40 expression (IL-12p40 in PBMCs): elevation of IL-12p40 expression couldn't be observed
- HLA-DR expression levels restored / up-regulated [3]: up-regulated HLA-DR expression levels were not observed
- p-STAT1 signaling restored / up-regulated (p-STAT1 in whole blood): up-regulated p-STAT1 signaling was not found
- p-STAT1 signal (p-STAT1 in whole blood): up-regulated

Molecule: CTPKTGKRKRSEQ
- antibodies developed after immunization (WKY/NcrlNarl rats): developed anti-Noc2 antibodies that cross-reacted with human IFNr
- p-STAT1 signaling after recombinant IFNr in presence of sera of immunized rats (THP1 cells): decreased up-regulation of p-STAT1 signaling

Molecule: peptide 6: 30-mer synthetic peptide of human IFNr, P114-143 (IQVMAELSPAAKTGKRKRSQMLFRGRRASQ; UniProt P01579 137-166, looked up, fragment)
- recognition of synthetic peptide by blood plasma (anti-IFNr AutoAbs [4]): recognized in the blood plasma isolated from the 12 patients in group-1
- recognition of synthetic peptide by non-neutralizing AutoAbs (anti-IFNr AutoAbs [4]; plasma from healthy donors with non-neutralizing IFNr AutoAbs): did not recognize
- competition for AutoAbs binding to coated peptide 6 (anti-IFNr AutoAbs [5]): competition for the binding with coated peptide 6 in a dose dependent manner

Molecule: KKDVTPKTGKRKRSEQQKDE (KKDVPPKTGKRKRSEQQKDE; listed as Aspergillus terreus) [Aspergillus Noc2 peptide]
- recognition of synthetic peptide by blood plasma (anti-IFNr AutoAbs [4]): recognized by blood plasma isolated from patients with anti-IFNr AutoAbs
- binding of synthetic peptide by blood plasma (anti-IFNr AutoAbs [4]; plasma from mycobacteria infected patients without AutoAbs / healthy controls): did not react
- competition for AutoAbs binding to coated peptide 6 (anti-IFNr AutoAbs [5]): compete for IFNr AutoAbs binding with peptide 6 in a dose dependent manner

B1: mIFNr: murine IFNr (protein, UniProt P01580 23-155, looked up)
Interferon gamma: HGTVIESLESLNNYFNSSGIDVEEKSLFLDIWRNWQKDGDMKILQSQIISFYLRLFEVLKDNQAISNNISVIESHLITTFFSNSKAKKDAFMSIAKFEVNNPQVQRQAFNELIRVVHQLLPESSLRKRKRSRC
- blocking of IFNr detection by plasma from patients with AutoAbs (plasma dilution) (anti-IFNr AutoAbs [6]): no blocking activity
- blocking of IFNr detection by plasma from patients with AutoAbs (plasma dilution) (anti-IFNr AutoAbs [6]; listed as murine IFNr): did not show blocking activity

B2: IFNr_1-131: truncated recombinant human IFNr, deletion clone a.a. 1-131, expressed in Schneider 2 cells (protein)
chain: QDPYVKEAENLKKYFNAGHSDVADNGTLFLGILKNWKEESDRKIMQSQIVSFYFKLFKNFKDDQSIQKSVETIKEDMNVKFFNSNKKKRDDFEKLTNYSVTDLNVQRKAIHELIQVMAELSPAAKTGKRKR
modifications: left off: small tags and cut ends
notes: truncated recombinant human IFNr, deletion clone a.a; 1-131, expressed in Schneider 2 cells
- affinity of anti-IFNr AutoAbs by ELISA (anti-IFNr AutoAbs [1]; patients' blood plasma, OD 405 nm): bound to IFNr_1-131 in a dose dependent manner
- recognition of recombinant IFNr protein by blood plasma (ELISA) (anti-IFNr AutoAbs [1]): recognized by blood plasma isolated from the group-1 patients
- recognition by anti-IFNr AutoAbs in Western blot and dot blot (anti-IFNr AutoAbs [2]): recognized by anti-IFNr AutoAbs
- binding of plasma from healthy controls in Western blot (anti-IFNr AutoAbs [2]): no response
- binding of plasma from healthy controls in Western blot (anti-IFNr AutoAbs [2]; listed as WT IFNr_1-131): could not bind
- p-STAT1 signaling restored / up-regulated (p-STAT1 in PBMCs): up-regulated p-STAT1 signaling cannot be observed
- phosphorylation of STAT1 (p-STAT1 in PBMCs): not
- p-STAT1 signaling (p-STAT1 in PBMCs): Up-regulation of the p-STAT1 signaling was observed
- IL-12p40 expression (IL-12p40 in PBMCs): elevation of IL-12p40 expression couldn't be observed
- HLA-DR expression levels restored / up-regulated [3]: up-regulated HLA-DR expression levels were not observed
- p-STAT1 signaling restored / up-regulated (p-STAT1 in whole blood): up-regulated p-STAT1 signaling was not found
- p-STAT1 signal (p-STAT1 in whole blood): up-regulated
